Data from patent US20020068367A1, “Linker and method for solid phase combinatorial synthesis” (priority 2000, published 2002).
Several values for one entry are separate records, joined by “and”; a condition that tells them apart may be missing. Equal values may be shown once.

Biological target: T1, fluorescein-streptavidin (Streptomyces avidinii, UniProt P22629)
T1 construct: purchased Calbiochem-Novabiochem Corp., La Jolla, Calif; 189734
Assay: Fluorescence emission standard curve, streptavidin-fluorescein (evaluation of linker 3)
Conditions: for Fluorescence emission (standard curve): replicates
Text: FIG. 8 is a plot of data from Table 8, derived from evaluation of linker 3;

T1 sequence (P22629 25-183): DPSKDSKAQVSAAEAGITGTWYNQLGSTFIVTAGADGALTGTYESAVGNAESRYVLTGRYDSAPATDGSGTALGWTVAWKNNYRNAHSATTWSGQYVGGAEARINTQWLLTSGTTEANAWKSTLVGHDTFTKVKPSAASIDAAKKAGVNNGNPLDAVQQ

For `O=C(CCCCCNC(=O)CCCCCNC(=O)CCCCC1SCC2NC(=O)NC21)NCCCCCNC(=O)CCCCCNC(=O)CCCCC1SCC2NC(=O)NC21` (stereo not shown) [Linker 3], the “Fluorescence emission (standard curve), mean of Columns 1-3” value ([ST/FL] 7.4 pmol) was 150.37, the “Fluorescence emission (standard curve), sum of Columns 1-2” value (“Fluorescence emission … of Columns 1-2” for short) ([ST/FL] 7.4 pmol) was 283.8 and the “Fluorescence emission (standard curve), sum of Columns 1-3” value ([ST/FL] 7.4 pmol) was 451.1. The “Fluorescence emission (standard curve)” value ([ST/FL] 7.4 pmol) was 112.81 and 170.99 and 167.3, the “Fluorescence emission (standard curve), mean of Columns 1-3” value ([ST/FL] 11.0 pmol) was 245.76 and the “Fluorescence emission … of Columns 1-2” value ([ST/FL] 11.0 pmol) was 498.27. The “Fluorescence emission (standard curve), sum of Columns 1-3” value ([ST/FL] 11.0 pmol) was 737.28, the “Fluorescence emission (standard curve)” value ([ST/FL] 11.0 pmol) was 270.54 and 227.73 and 239.01 and the “Fluorescence emission (standard curve), mean of Columns 1-3” value ([ST/FL] 15.0 pmol) was 281.62. For the same compound, the “Fluorescence emission … of Columns 1-2” value ([ST/FL] 15.0 pmol) was 566.42, the “Fluorescence emission (standard curve), sum of Columns 1-3” value ([ST/FL] 15.0 pmol) was 844.85 and the “Fluorescence emission (standard curve)” value ([ST/FL] 15.0 pmol) was 307.82 and 258.6 and 278.43. For the same compound, the “Fluorescence emission (standard curve), mean of Columns 1-3” value ([ST/FL] 18.0 pmol) was 311.00, the “Fluorescence emission … of Columns 1-2” value ([ST/FL] 18.0 pmol) was 633.01 and the “Fluorescence emission (standard curve), sum of Columns 1-3” value ([ST/FL] 18.0 pmol) was 933.0. The “Fluorescence emission (standard curve)” value ([ST/FL] 18.0 pmol) was 361.66 and 271.35 and 299.99, the “Fluorescence emission (standard curve), mean of Columns 1-3” value ([ST/FL] 22.0 pmol) was 350.48 and the “Fluorescence emission … of Columns 1-2” value ([ST/FL] 22.0 pmol) was 723.72. The “Fluorescence emission (standard curve), sum of Columns 1-3” value ([ST/FL] 22.0 pmol) was 1051.4, the “Fluorescence emission (standard curve)” value ([ST/FL] 22.0 pmol) was 363.91 and 359.81 and 327.71 and the “Fluorescence emission (standard curve), mean of Columns 1-3” value ([ST/FL] 26.0 pmol) was 461.85. For the same compound, the “Fluorescence emission … of Columns 1-2” value ([ST/FL] 26.0 pmol) was 944.08, the “Fluorescence emission (standard curve), sum of Columns 1-3” value ([ST/FL] 26.0 pmol) was 1385.6 and the “Fluorescence emission (standard curve)” value ([ST/FL] 26.0 pmol) was 496.71 and 447.37 and 441.48. For the same compound, the “Fluorescence emission (standard curve), mean of Columns 1-3” value ([ST/FL] 29.0 pmol) was 472.31, the “Fluorescence emission … of Columns 1-2” value ([ST/FL] 29.0 pmol) was 1001.7 and the “Fluorescence emission (standard curve), sum of Columns 1-3” value ([ST/FL] 29.0 pmol) was 1416.9. The “Fluorescence emission (standard curve)” value ([ST/FL] 29.0 pmol) was 495.93 and 505.81 and 415.18, the “Fluorescence emission (standard curve), mean of Columns 1-3” value ([ST/FL] 36.0 pmol) was 567.49 and the “Fluorescence emission … of Columns 1-2” value ([ST/FL] 36.0 pmol) was 1141.1. The “Fluorescence emission (standard curve), sum of Columns 1-3” value ([ST/FL] 36.0 pmol) was 1702.5, the “Fluorescence emission (standard curve)” value ([ST/FL] 36.0 pmol) was 569.16 and 571.94 and 561.36 and the “Fluorescence emission (standard curve), mean of Columns 1-3” value ([ST/FL] 45.0 pmol) was 697.34. For the same compound, the “Fluorescence emission … of Columns 1-2” value ([ST/FL] 45.0 pmol) was 1374.6, the “Fluorescence emission (standard curve), sum of Columns 1-3” value ([ST/FL] 45.0 pmol) was 2092.0 and the “Fluorescence emission (standard curve)” value ([ST/FL] 45.0 pmol) was 688.65 and 685.98 and 717.4. For the same compound, the “Fluorescence emission (standard curve), mean of Columns 1-3” value ([ST/FL] 60.0 pmol) was 847.26, the “Fluorescence emission … of Columns 1-2” value ([ST/FL] 60.0 pmol) was 1651.9 and the “Fluorescence emission (standard curve), sum of Columns 1-3” value ([ST/FL] 60.0 pmol) was 2541.8. The “Fluorescence emission (standard curve)” value ([ST/FL] 60.0 pmol) was 837.57 and 816.34 and 889.88.
